The record followed here is US20230416205A1, “COMPOUNDS, COMPOSITIONS, AND METHODS” (Denali Therapeutics Inc, priority 2020, published 2023).

SMILES strings stand for the structures. Read-outs that look alike come from different tables or passages of the source.

For this assay, the system named is NLRP3. Put plainly: IL-1β secretion assay in PMA-differentiated, LPS/nigericin-stimulated THP-1 cells (384-well, ELISA read-out). The assay is classed as cell-based, human. In outline:
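THP-1 cells differentiated with PMA (5 ng/mL, 40 h), primed in serum-free medium with 25 ng/mL LPS for 2 h, treated with compounds 1 h (0.5% DMSO), then stimulated with nigericin for 2 h at 37 °C. Supernatant IL-1β measured by ELISA; responses normalized to LPS+5 μM nigericin and LPS-only controls.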

Setting [1] is: Homo sapiens, THP-1, IL-1β secretion, PMA-differentiated THP-1 cells, LPS then nigericin stimulation, ELISA read at 450 nm, read-out: Activity.
Setting [2] is: Homo sapiens, THP-1, Table 4, IL-1β secretion, LPS/nigericin-stimulated THP-1 cells, read-out: IC50.

As for `O=C(CN1C[C@@]2(C[C@@H]2F)c2c(ccc(Br)c2F)C1=O)Nc1ncc(F)cn1` (single isomer, unassigned) [Example 220, 2-[(2′s,4r)-6-bromo-2′,5-difluoro-1-oxospiro[3H-isoquinoline-4,1′-cyclopropane]-2-yl]-N-(5-fluoropyrimidin-2-yl)acetamide], the IC50 is, setting by setting: under setting [1], less than 10 µM; under setting [2], 0.02 µM.
The matching figures for `O=C(CN1CC2(CCC2)c2cc(Br)ccc2C1=O)Nc1ncccn1` [Example 32, 2-(6-bromo-1-oxo-spiro[3H-isoquinoline-4,1′-cyclobutane]-2-yl)-N-pyrimidin-2-yl-acetamide]: less than 10 µM and 1.95 µM.
Regarding `Cc1cc(NC(=O)CN2CC3(CC3)c3cc(Br)ccc3C2=O)n(C)n1` [Example 144, 2-(6-bromo-1-oxospiro[3H-isoquinoline-4,1′-cyclopropane]-2-yl)-N-(2,5-dimethylpyrazol-3-yl)acetamide], the IC50 is, setting by setting: under setting [1], less than 10 µM; under setting [2], 3.91 µM.
For the molecule `O=C(CN1CC2(CC2)c2c(ccc(C3C[C@@H]3F)c2F)C1=O)Nc1ncc(F)cn1` (single isomer, unassigned) [Example 305, 2-[5-fluoro-6-[(1r,2s)-2-fluorocyclopropyl]-1-oxospiro[3H-isoquinoline-4,1′-cyclopropane]-2-yl]-N-(5-fluoropyrimidin-2-yl)acetamide], the IC50 under setting [2] was determined as 0.662 µM.
Consider `O=C(CN1CC2(CC2)c2cc(Br)ccc2C1=O)Nc1ncc(I)cn1` [Example 269, 2-(6-bromo-1-oxospiro[3H-isoquinoline-4,1′-cyclopropane]-2-yl)-N-(5-iodopyrimidin-2-yl)acetamide], for which the IC50 is less than 10 µM under setting [1] and 0.087 µM under setting [2].
On to `O=C(CN1CC2(CC2)c2cc(Br)ccc2C1=O)Nc1ccn2ccnc2n1` [Example 374, 2-(6-bromo-1-oxospiro[3H-isoquinoline-4,1′-cyclopropane]-2-yl)-N-imidazo[1,2-a]pyrimidin-7-ylacetamide], for which the IC50 under setting [2] is 9.45 µM.
As for `O=C(CN1CC2(CC2)c2cc(Br)ccc2C1=O)Nc1cc2cccnc2cn1` [Example 176, 2-(6-bromo-1-oxospiro[3H-isoquinoline-4,1′-cyclopropane]-2-yl)-N-(1,7-naphthyridin-6-yl)acetamide], the IC50 by setting is: under setting [1], less than 10 µM; under setting [2], 2.95 µM.
The matching figures for `CC(C)(O)CC1(NC(=O)CN2CC3(CC3)c3cc(Br)ccc3C2=O)CC1` [Example 174, 2-(6-bromo-1-oxospiro[3H-isoquinoline-4,1′-cyclopropane]-2-yl)-N-[1-(2-hydroxy-2-methylpropyl)cyclopropyl]acetamide]: 10 to 15 µM and 10.9 µM.
On to `N#Cc1cnc(NC(=O)CN2C[C@@]3(C[C@@H]3F)c3c(ccc(C4CC4)c3F)C2=O)nc1` [Example 230, 2-[(2′s,4r)-6-cyclopropyl-2′,5-difluoro-1-oxospiro[3H-isoquinoline-4,1′-cyclopropane]-2-yl]-N-(5-cyanopyrimidin-2-yl)acetamide], for which the IC50 is less than 10 µM under setting [1] and 0.051 µM under setting [2].
For `O=C(CN1CC2(CC2)c2cc(Br)ccc2C1=O)Nc1ccc2cncn2c1` [Example 201, 2-(6-bromo-1-oxospiro[3H-isoquinoline-4,1′-cyclopropane]-2-yl)-N-imidazo[1,5-a]pyridin-6-ylacetamide] the same measures were less than 10 µM and 1.32 µM.
The matching figures for `COc1ccc2c(c1)C1(CC1)CN(CC(=O)Nc1ncccn1)C2=O` [Example 91, 2-(6-methoxy-1-oxospiro[3H-isoquinoline-4,1′-cyclopropane]-2-yl)-N-pyrimidin-2-ylacetamide]: less than 10 µM and 3.21 µM.
The matching figures for `O=C(CN1CC2(CC2)c2cc(Br)ccc2C1=O)Nc1cnc2[nH]ccc2c1` [Example 156, 2-(6-bromo-1-oxospiro[3H-isoquinoline-4,1′-cyclopropane]-2-yl)-N-(1H-pyrrolo[2,3-b]pyridin-5-yl)acetamide]: less than 10 µM and 4.39 µM.
Take `O=C(CN1CC2(CC2)c2cc(Br)ccc2C1=O)NC1CC(O)(C(F)(F)F)C1` (stereo not drawn) [Example 55, 2-(6-bromo-1-oxo-spiro[3H-isoquinoline-4,1′-cyclopropane]-2-yl)-N-[cis-3-hydroxy-3-(trifluoromethyl)cyclobutyl]acetamide]: the IC50 was less than 10 µM under setting [1] and 0.861 µM under setting [2].
For `CC1(C)COC(NC(=O)CN2CC3(CC3)c3cc(Br)ccc3C2=O)=N1` [Example 405, 2-(6-bromo-1-oxospiro[3H-isoquinoline-4,1′-cyclopropane]-2-yl)-N-(4,4-dimethyl-5H-1,3-oxazol-2-yl)acetamide], the IC50 under setting [2] is 18 µM.
Regarding `N#Cc1cnc(NC(=O)CN2C[C@]3(C[C@H]3F)c3cc(Br)ccc3C2=O)c(F)c1` [Example 275, 2-[(2′r,4s)-6-bromo-2′-fluoro-1-oxospiro[3H-isoquinoline-4,1′-cyclopropane]-2-yl]-N-(5-cyano-3-fluoropyridin-2-yl)acetamide], the IC50 is, setting by setting: under setting [1], less than 10 µM; under setting [2], 0.07 µM.
The matching figures for `O=C(CN1CC2(CC2)c2cc(Br)ccc2C1=O)NCCn1ccnc1` [Example 121, 2-(6-bromo-1-oxospiro[3H-isoquinoline-4,1′-cyclopropane]-2-yl)-N-(2-imidazol-1-ylethyl)acetamide]: 10 to 15 µM and 12.1 µM.
With `O=C(CN1CC(CF)c2cc(Br)ccc2C1=O)Nc1ncc(F)cn1` (single isomer, unassigned) [Example 292, 2-[6-bromo-4-(fluoromethyl)-1-oxo-3,4-dihydroisoquinolin-2-yl]-N-(5-fluoropyrimidin-2-yl)acetamide], the IC50 is less than 10 µM under setting [1] and 3.94 µM (Table 4, IL-1β secretion, LPS/nigericin-stimulated THP-1 cells, read-out: IC50).
Consider `O=C(CN1CC2(CC2)c2cc(Br)ccc2C1=O)Nc1nccc(=O)[nH]1` [Example 214, 2-(6-bromo-1-oxospiro[3H-isoquinoline-4,1′-cyclopropane]-2-yl)-N-(6-oxo-1H-pyrimidin-2-yl)acetamide], for which the IC50 reads like this: under setting [1], less than 10 µM; under setting [2], 7.5 µM.
With `O=C(CN1CC2(CC2)c2cc(Br)ccc2C1=O)Nc1cnc2ccccc2c1` [Example 131, 2-(6-bromo-1-oxospiro[3H-isoquinoline-4,1′-cyclopropane]-2-yl)-N-quinolin-3-ylacetamide], the IC50 is less than 10 µM under setting [1] and 7.7 µM under setting [2].
Consider `O=C(CN1CC2(CC2)c2cc(Br)ccc2C1=O)N[C@@H]1CCN(C2COC2)C1` [Example 381, 2-(6-bromo-1-oxospiro[3H-isoquinoline-4,1′-cyclopropane]-2-yl)-N-[(3R)-1-(oxetan-3-yl)pyrrolidin-3-yl]acetamide], for which, under setting [2], the IC50 was 12.1 µM.
As for `O=C(CN1CC2(CC2)c2cc(Br)ccc2C1=O)Nc1ncccn1` [Example 5], the IC50 was less than 10 µM under setting [1] and 0.216 µM under setting [2].
As to `Cn1ncc2nc(NC(=O)CN3CC4(CC4)c4cc(Br)ccc4C3=O)ccc21` [Example 189, 2-(6-bromo-1-oxospiro[3H-isoquinoline-4,1′-cyclopropane]-2-yl)-N-(1-methylpyrazolo[4,3-b]pyridin-5-yl)acetamide], the IC50 runs as follows: under setting [1], less than 10 µM; under setting [2], 3.76 µM.
On to `O=C(CN1CC2(CC2)c2cc(Br)ccc2C1=O)NC1CCN(c2ccccn2)CC1` [Example 379, 2-(6-bromo-1-oxospiro[3H-isoquinoline-4,1′-cyclopropane]-2-yl)-N-(1-pyridin-2-ylpiperidin-4-yl)acetamide], for which the IC50 under setting [2] worked out at 8.92 µM.
With `O=C(CN1CC2(CC2)c2cc(Br)ccc2C1=O)NCC(O)c1ccc(F)cc1` (stereo not drawn) [Example 132, 2-(6-bromo-1-oxospiro[3H-isoquinoline-4,1′-cyclopropane]-2-yl)-N-[2-(4-fluorophenyl)-2-hydroxyethyl]acetamide], the IC50 is greater than 15 µM under setting [1] and 29.7 µM under setting [2].
With `O=C(CN1CC2(CC2)c2cc(Br)ccc2C1=O)Nc1ncc2ncsc2n1` [Example 409, 2-(6-bromo-1-oxospiro[3H-isoquinoline-4,1′-cyclopropane]-2-yl)-N-([1,3]thiazolo[5,4-d]pyrimidin-5-yl)acetamide], the IC50 under setting [2] was determined as 1.37 µM.
On the same count and under the same terms, as for `Cc1cn2nc(NC(=O)CN3CC4(CC4)c4cc(Br)ccc4C3=O)ccc2n1` [Example 400, 2-(6-bromo-1-oxospiro[3H-isoquinoline-4,1′-cyclopropane]-2-yl)-N-(2-methylimidazo[1,2-b]pyridazin-6-yl)acetamide], the figure is 0.612 µM.
As for `O=C(CN1CC2(CC2)c2c(F)cccc2C1=O)Nc1ncccn1` [Example 40, 2-(5-fluoro-1-oxo-spiro[3H-isoquinoline-4,1′-cyclopropane]-2-yl)-N-(pyrimidin-2-yl)acetamide], the IC50 under setting [1] was less than 10 µM and the IC50 under setting [2] stood at 8.78 µM.
As to `O=C(CN1CC2(CC2)c2cc(Br)ccc2C1=O)NC1CCN(CC(F)(F)F)CC1` [Example 375, 2-(6-bromo-1-oxospiro[3H-isoquinoline-4,1′-cyclopropane]-2-yl)-N-[1-(2,2,2-trifluoroethyl)piperidin-4-yl]acetamide], the IC50 under setting [2] was determined as 11.1 µM.
Take `Cn1cc2nc(NC(=O)CN3CC4(CC4)c4cc(Br)ccc4C3=O)ccc2n1` [Example 190, 2-(6-bromo-1-oxospiro[3H-isoquinoline-4,1′-cyclopropane]-2-yl)-N-(2-methylpyrazolo[4,3-b]pyridin-5-yl)acetamide]: the IC50 under setting [1] is less than 10 µM and the IC50 under setting [2] was determined as 0.691 µM.
With `O=C(CN1CC2(CC2)c2cc(Br)ccc2C1=O)Nc1ncc2c(n1)COCC2` [Example 330, 2-(6-bromo-1-oxospiro[3H-isoquinoline-4,1′-cyclopropane]-2-yl)-N-(6,8-dihydro-5H-pyrano[3,4-d]pyrimidin-2-yl)acetamide], the IC50 under setting [2] was determined as 1.02 µM.
